Data published in US8937063B2 (Trustees of Tufts College, priority 2010, dated 2015).

Key:
[1] = Single oral dose pharmacokinetic comparison niacin, ARI-001, 2230C in wild type mice; format: in vivo, C57BL/6 mice; conditions: single bolus oral gavage, mouse plasma
Text: Compound 2230C has the structure

[2] = Storage stability of ARI-001 at 50° C., LC-MS; format: physicochemical; conditions: unregulated humidity
Protocol: ARI-001 was synthesized as described above. Purity was determined independently before use in experiments by examination via liquid chromatography-mass spectroscopy (LC-MS). A sample of material was dissolved in water/acetonitrile and injected onto a Discovery C-18 reverse phase column. The mobile phase began as 2%:98% acetonitrile:water, which was held for three minutes, after which a linear gradient was started that ran over 6 minutes, increasing the percent of acetonitrile until a final ratio of 98%:2% acetonitrile:water was reached. This final ratio was held for 3 minutes. The major peak was identified as ARI-001.
Stability was determined by storing ARI-001 under 50° C. with no specified humidity requirement. At various time points over the course of 3 months (90 days), a small sample (<5 mg) of ARI-001 was collected for analysis using LC-MS under the same conditions as used for purity determination (vide supra).

[3] = ARI-001 plasma, liver and adipose concentrations correlated with lipid parameters; format: in vivo, hamster; conditions: 18-day study; p<0.01 for each pair
Protocol: Plasma from the 19 hamsters dosed with ARI-001 in the above described 18-day study was analyzed for concentrations of ARI-001. Concentrations were determined for these samples, which were collected 24 hours after the final dose was administered. Briefly, plasma drug concentrations for the non-GLP pharmacokinetic experiments were determined by LC-MS using an Applied Biosystems 4000Qtrap spectrometer with electrospray ionization. Samples were prepared for analysis by precipitation of plasma proteins with cold methanol. HPLC of the samples was done with an Agilent Eclipse C18 column and a methanol/water gradient containing 0.1% formic acid and 5 mM ammonium acetate. ARI-001 was detected using multiple reaction monitoring (MRM) in the positive ion mode. For quantitation, a standard curve was measured by addition of known amounts of ARI-001 to plasma from untreated animals and preparing in a manner identical to the samples from treated animals. All plasma samples were spiked with 10 ng/mL of isotope-enriched ARI-001 which served as an internal standard for the LC-MS measurements. […] Pearson r values were determined using all data points, as was the two-tailed P-value for the data set. […]
FIG. 8 graphs the correlation between concentrations of ARI-001 in plasma versus liver (left), and in plasma versus adipose (right). […] Pearson r was determined using all data points illustrated. […]

[4] = target: T1, GPR109A (Homo sapiens, UniProt Q8TDS4); assay: PathHunter eXpress β-arrestin recruitment assay; format: cell-based; conditions: concentrations up to 10 mM, 90 minutes
T1 construct: β-galactosidase enzyme fragment (ProLink-type complementation tag); expressed in transfected cells
Text: Walters R W et al. (2009) J Clin Invest 119:1312-21. […] G protein-coupled receptor (GPCR) activity was detected by measuring the interaction of β-arrestin with the activated GPCR using […] enzyme fragment complementation.

[5] = system: adiponectin mRNA; assay: qPCR of adipose mRNA in HF/HS hamsters; format: in vivo, hamster; conditions: ARI-001 2240 mg/kg oral 18 days; relative to mean of vehicle
Text: Hamster livers and adipose were preared in manners similar to that described for ARI-001 concentration determination. Briefly, to prepare for analysis, a sample of liver was excised from the frozen mass, weighed, and homogenized with a tissue grinder followed by sonication in buffer. The solid materials were then removed by centrifugation. The resulting lysate was used in qPCR analysis to quantify the specific mRNA measured (vide infra) using primers designed for the specific sequences of interest. All mRNA quantities were normalized to vehicle-treated animal, and mRNA levels were expressed as a fold increase or decrease relative to vehicle-treated. […] During grinding, liquid nitrogen was added to ensure the sample of adipose remained solid. The ground sample was transferred to a tared tube to weigh total sample. This ground sample was treated with buffer and prepared for qPCR to quantify specific mRNA quantities.

[6] = Pharmacokinetics of multiple administrations to fasted monkeys; format: in vivo, Macaque monkeys; conditions: 288 mg/kg oral gavage once per day, seven days
Protocol: ARI-001 was administered to monkeys via oral gavage once per day for a total of seven days. Blood samples were collected after the first and after the last administrations to measure plasma concentrations of ARI-001.

T1 sequence (Q8TDS4 whole entry, the tested form may be a part): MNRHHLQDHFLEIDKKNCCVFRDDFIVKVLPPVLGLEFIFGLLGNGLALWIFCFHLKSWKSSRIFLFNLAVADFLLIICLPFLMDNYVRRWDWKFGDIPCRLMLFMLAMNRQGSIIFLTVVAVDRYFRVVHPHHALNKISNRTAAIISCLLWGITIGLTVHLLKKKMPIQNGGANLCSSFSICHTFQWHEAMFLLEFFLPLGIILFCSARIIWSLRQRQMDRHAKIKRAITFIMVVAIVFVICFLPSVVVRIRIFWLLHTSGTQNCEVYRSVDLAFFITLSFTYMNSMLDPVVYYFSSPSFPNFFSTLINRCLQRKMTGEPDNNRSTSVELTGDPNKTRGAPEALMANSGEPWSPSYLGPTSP

AUC ([1]; C57BL/6): 1100 µM·h
Cmax ([1]; C57BL/6): 309 µM
Tmax ([1]; C57BL/6): 22.8 min
half-life ([1]; C57BL/6, read-out: half-life (t1/2) (converted)): 85.8 min
AUC (% Niacin) [1]: 9.4 % Niacin
Cmax (% Niacin) [1]: 7.5 % Niacin
Cmax/AUC0-24 [1]: 0.28 h⁻¹
purity remaining on storage ([2]; 65 days): 98.9%
purity remaining on storage ([2]; 90 days): 95.9%
correlations of plasma versus liver and plasma versus adipose concentrations [3]: highly statistically significant
recruitment of β-arrestin to the membrane of cells expressing GPR109A [4]: failed to recruit β-arrestin
Cmax day 1 versus day 7 [6]: higher on day 7 than on day 1
concentrations 24 hours after first or last dose [6]: essentially identical
plasma concentrations day 1 versus day 7 [6]: very little difference
Compound: O=C(O)c1ccc(CCN2CCOCC2)nc1 [ARI-001]
Adipose Adiponectin mRNA per mg tissue [5]: 2.00 ± 0.23 fold-change
